{"source": "patent US7147849B2", "about": "“Pharmaceutical formulation” (Bitop AG, priority 1999, dated 2006)", "tested_on": "human L540Cy tumors", "design": "species or system SCID mice", "conditions": "mouse, in vivo"}
{"smiles": "CC1=NC[C@H](O)[C@@H](C(=O)O)N1", "note": "[S,S-β-hydroxyectoine]", "values": [{"measurement": "tumor development compared with PBS without S,S-β-hydroxyectoine", "value": "faster tumor development"}, {"measurement": "average survival rates calculated according to Kaplan-Meier", "setting": "iv", "value": "30.0 (±2) days"}]}
